Measurements as given in US10959938B2, “Combination of (3S,3S′) 4,4′-disulfanediylbis(3-aminobutane 1-sulfonic acid) and a second antihypertensive agent” (QUANTUM GENOMICS, priority 2011, dated 2021).

Test system: spontaneously hypertensive rats (SHR)
Experiment: Mean arterial blood pressure (MABP) and heart rate recording in conscious, unrestrained SHR after acute oral administration
Type: in vivo, rat
Conditions: 1 hour (FIG. 2)
Procedure: RB150, the ACEI, enalapril (supplied from Merck Sharp and Dohme research Lab), and the ARB, valsartan (Sigma-Aldrich), were dissolved in sterile saline and adjusted to pH 7.4 for in vivo administration.
Male spontaneously hypertensive rats (SHR), weighing 250 to 350 g, were obtained from Charles River Laboratories (L'Arbresle, France) and animals were kept under artificial light (12-hours light/12-hours dark cycle) with a normal standard diet and water given ad libitum. The experiments were conducted according to the National Institutes of Health Guide for the Care and Use of Laboratory Animals.
Twelve weeks male SHR were anesthetized with pentobarbital sodium (60 mg/kg, i.p, Centravet). Catheters were implanted in the femoral artery. The femoral arterial catheter was brought under the skin and emerged at the nape of the neck. After surgery, each rat was given an intraperitoneal injection of 0.1 mL of penicillin-streptomycin (50,000 units/mL; Sigma) and allowed to recover for at least 24 hours before the experiment. […] Each experiment was monitored by using a COBE CDX III pressure transducer (Phymep, Paris, France) connected to the MacLab system (Phymep) consisting of a MacLab hardware unit and chart software running on a Macintosh computer. […]

SMILES	BP decrease 1 hour after drug administration (RB150 alone 150 mg/kg po)	BP decrease 1 hour after drug administration (enalapril alone 3 mg/kg po)
N[C@@H](CCS(=O)(=O)O)CSSC[C@@H](N)CCS(=O)(=O)O [RB150, (3S,3S′) 4,4′-disulfanediylbis(3-aminobutane 1-sulfonic acid)]	did not induce any significant BP decrease	–
CCOC(=O)[C@H](CCc1ccccc1)N[C@@H](C)C(=O)N1CCC[C@H]1C(=O)O [enalapril]	–	did not induce any significant BP decrease
